Values quoted from earlier work, collected in article PMC12444507 (ACS Omega, 2025).

System: nirmatrelvir-resistant E166 V-carrying SARS-CoV-2^E166V
Conditions: cited from earlier work

CC(C)(C)[C@H](NC(=O)C(F)(F)F)C(=O)N1C[C@H]2[C@@H]([C@H]1C(=O)N[C@@H](C[C@@H]1CCNC1=O)C(=O)c1nc3cc(F)ccc3s1)C2(C)C [TKB272 (8)]
antiviral activity against SARS-CoV-2^E166V: substantial antiviral activity
